Structures can show the parent of a compound that is named as a salt. Where two headings read alike, the source gives them in different places.
Key:
[1] = tested on: HBV; test: HBV inhibitory activity in HepG2.2.15 cells (HBV DNA in culture medium by q-PCR); type: cell-based; conditions: Hepatitis B virus, HepG2.2.15, 144 h
Outline: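 HepG2.2.15 cells (40,000/well, 2% FBS) treated 6 days with compounds, medium refreshed once; 8 points, 3-fold dilution, top 10 uM. Secreted HBV DNA in medium extracted and quantified by q-PCR; EC50 calculated from dose-response.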

[2] = Cytotoxicity determination in HepG2.2.15 cells (CCK-8); type: cell-based; conditions: human, HepG2.2.15 cells, 5,000 cells/well, 6 days of compound treatment, CCK-8 absorbance 450 nm, highest concentration 100 uM
Outline: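 HepG2.2.15 cells, 5,000/well in 2% FBS medium, treated 6 days with compound (medium refreshed midway), 8-point 3-fold dilutions from 100 uM top. Viability read by CCK-8, 2.5 h at 37° C, absorbance 450 nm with 630 nm reference; CC50 from curve fitting.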

[3] = HepG2.2.15 cells, 40,000 cells/well, 6 days of compound treatment, HBV DNA in culture medium by q-PCR, highest concentration 10 uM, read-out: EC50

COC(=O)C1=C(C2CCc3nc(C(=O)O)oc3C2)NC(c2nccs2)=NC1c1ccc(F)c(F)c1Cl (stereo not shown) [Compound 78c, lithium 6-(6-(2-chloro-3,4-difluorophenyl)-5-(methoxycarbonyl)-2-(thiazol-2-yl)-3,6-dihydropyrimidin-4-yl)-4,5,6,7-tetrahydrobenzo[d]oxazole-2-carboxylate]
EC50 [1]: 0.0571 µM | CC50 at 6 days [2]: 52 µM

COC(=O)C1=C(C2CCc3nn(CCC(=O)O)cc3C2)NC(c2nccs2)=NC1c1ccc(F)cc1C (stereo not shown) [Compound 80c, 3-(5-(6-(4-fluoro-2-methylphenyl)-5-(methoxycarbonyl)-2-(thiazol-2-yl)-3,6-dihydropyrimidin-4-yl)-4,5,6,7-tetrahydro-2H-indazol-2-yl)propanoic acid]
EC50 [1, 3]: 0.0724 µM | CC50 at 6 days ([2]; HepG2.2.15 cells): 33.2 µM

COC(=O)C1=C(C2CCc3nn(CC(C)(C)C(=O)O)cc3C2)NC(c2nccs2)=NC1c1ccc(F)c(F)c1Cl (stereo not shown) [Compound 84d, 3-(5-(6-(2-chloro-3,4-difluorophenyl)-5-(methoxycarbonyl)-2-(thiazol-2-yl)-3,6-dihydropyrimidin-4-yl)-4,5,6,7-tetrahydro-2H-indazol-2-yl)-2,2-dimethylpropanoic acid]
EC50 [1, 3]: 0.0188 µM | CC50 at 6 days ([2]; HepG2.2.15 cells): 16.4 µM

CCOC(=O)C1=C(C2CCc3nn(CCC(C)(C)C(=O)O)cc3C2)NC(c2nccs2)=NC1c1ccc(F)c(F)c1Cl (stereo not shown) [Compound 88d, 4-(5-(6-(2-Chloro-3,4-difluorophenyl)-5-(ethoxycarbonyl)-2-(thiazol-2-yl)-3,6-dihydropyrimidin-4-yl)-4,5,6,7-tetrahydro-2H-indazol-2-yl)-2,2-dimethylbutanoic acid]
EC50 [1, 3]: 0.0208 µM | CC50 at 6 days ([2]; HepG2.2.15 cells): 9.8 µM

COC(=O)C1=C(C2CCc3nn(CCC(C)(C)C(=O)O)cc3C2)NC(c2nccs2)=NC1c1ccc(F)c(F)c1Cl (stereo not shown) [Compound 90c, 4-(5-(6-(2-Chloro-3,4-difluorophenyl)-5-(methoxycarbonyl)-2-(thiazol-2-yl)-3,6-dihydropyrimidin-4-yl)-4,5,6,7-tetrahydro-2H-indazol-2-yl)-2,2-dimethylbutanoic acid]
EC50 [1, 3]: 0.0249 µM | CC50 at 6 days ([2]; HepG2.2.15 cells): 13.3 µM

CCOC(=O)C1=C(C2CCc3nn(CC(C)(C)C(=O)O)cc3C2)NC(c2nccs2)=NC1c1ccc(F)c(F)c1C (stereo not shown) [Compound 92c, 3-(5-(6-(3,4-difluoro-2-methylphenyl)-5-(ethoxycarbonyl)-2-(thiazol-2-yl)-3,6-dihydropyrimidin-4-yl)-4,5,6,7-tetrahydro-2H-indazol-2-yl)-2,2-dimethylpropanoic acid]
EC50 [1, 3]: 0.0079 µM | CC50 at 6 days ([2]; HepG2.2.15 cells): 9.3 µM

CCOC(=O)C1=C(C2CCc3nn(CC(C)(C)C(=O)O)cc3C2)NC(c2ncc(F)cc2F)=NC1c1ccc(F)c(F)c1Cl (stereo not shown) [Compound 94c, 3-(5-(6-(2-Chloro-3,4-difluorophenyl)-2-(3,5-difluoropyridin-2-yl)-5-(ethoxycarbonyl)-3,6-dihydropyrimidin-4-yl)-4,5,6,7-tetrahydro-2H-indazol-2-yl)-2,2-dimethylpropanoic acid hydrochloride]
EC50 [1]: 0.0071 µM | CC50 at 6 days [2]: 16.5 µM

COC(=O)C1=C(C2CCc3nn([C@H]4C[C@@H](C(=O)O)C4)cc3C2)NC(c2nccs2)=NC1c1ccc(F)c(F)c1Cl (stereo partly drawn) [Compound 96d, (cis)-3-(5-(6-(2-Chloro-3,4-difluorophenyl)-5-(methoxycarbonyl)-2-(thiazol-2-yl)-3,6-dihydropyrimidin-4-yl)-4,5,6,7-tetrahydro-2H-indazol-2-yl)cyclobutanecarboxylic acid]
EC50 [1, 3]: 0.0247 µM | CC50 at 6 days ([2]; HepG2.2.15 cells): 19.3 µM

Reference: patent publication US20210220356A1, “DIHYDROPYRIMIDINE DERIVATIVES AND USES THEREOF IN THE TREATMENT OF HBV INFECTION OR OF HBV-INDUCED DISEASES” (Janssen Sciences Ireland Unlimited Company, priority 2018, published 2021)
